{"source": "ChEMBL document CHEMBL5055643", "about": "“Sophoraflavanone G Resensitizes ABCG2-Overexpressing Multidrug-Resistant Non-Small-Cell Lung Cancer Cells to Chemotherapeutic Drugs” (J Nat Prod, 2021)", "key": {"HEK293 [1]": {"test_system": "HEK293", "test": "Chemo-sensitizing activity against human HEK293 cells assessed as reversal fold at 1 uM measured after 72 hrs in presence of paclitaxel by CCK8 assay relative to control", "type": "functional"}, "HEK293 [2]": {"test_system": "HEK293", "test": "Chemo-sensitizing activity against human HEK293 cells assessed as reversal fold at 1 uM measured after 72 hrs in presence of vincristine by CCK8 assay relative to control", "type": "functional"}, "A549 [3]": {"test_system": "A549", "test": "Chemo-sensitizing activity against becatecarin-selected ABCG2-overexpressing human A549/Bec150 cells assessed as reversal fold at 5 uM measured after 72 hrs in presence of mitoxantrone by CCK8 assay relative to control", "type": "functional"}, "NCI-H460 [4]": {"test_system": "NCI-H460", "test": "Chemo-sensitizing activity against human NCI-H460 cells assessed as reversal fold at 5 uM measured after 72 hrs in presence of mitoxantrone by CCK8 assay relative to control", "type": "functional"}, "NCI-H460 [5]": {"test_system": "NCI-H460", "test": "Chemo-sensitizing activity against human NCI-H460 cells assessed as reversal fold at 5 uM measured after 72 hrs in presence of topotecan by CCK8 assay relative to control", "type": "functional"}, "ABCG2 [6]": {"test_system": "ABCG2", "test": "Resistance factor, ratio of IC50 for becatecarin-selected ABCG2-overexpressing human A549/Bec150 cells to IC50 for human A549 cells", "type": "ADME", "conditions": "read-out: Ratio IC50"}, "A549 [7]": {"test_system": "A549", "test": "Chemo-sensitizing activity against becatecarin-selected ABCG2-overexpressing human A549/Bec150 cells assessed as reversal fold at 2 uM measured after 72 hrs in presence of SN-38 by CCK8 assay relative to control", "type": "functional"}, "HEK293 [8]": {"test_system": "HEK293", "test": "Chemo-sensitizing activity against ABCG2-overexpressing human HEK293/482R cells assessed as reversal fold at 2 uM measured after 72 hrs in presence of SN-38 by CCK8 assay relative to control", "type": "functional"}, "HEK293 [9]": {"test_system": "HEK293", "test": "Chemo-sensitizing activity against human HEK293 cells assessed as reversal fold at 1 uM measured after 72 hrs in presence of colchicine by CCK8 assay relative to control", "type": "functional"}, "HEK293 [10]": {"test_system": "HEK293", "test": "Chemo-sensitizing activity against ABCB1-overexpressing human HEK293/MDR19 cells assessed as reversal fold at 1 uM measured after 72 hrs in presence of colchicine by CCK8 assay relative to control", "type": "functional"}, "KB-V1 [11]": {"test_system": "KB-V1", "test": "Chemo-sensitizing activity against ABCB1-overexpressing human KB-V1 cells assessed as reversal fold at 5 uM measured after 72 hrs in presence of vincristine by CCK8 assay relative to control", "type": "functional"}, "NCI-H460 [12]": {"test_system": "NCI-H460", "test": "Chemo-sensitizing activity against mitoxantrone-selected ABCG2-overexpressing human NCI-H460/MX20 cells assessed as reversal fold at 2 uM measured after 72 hrs in presence of mitoxantrone by CCK8 assay relative to control", "type": "functional"}, "KB 3-1 [13]": {"test_system": "KB 3-1", "test": "Chemo-sensitizing activity against human KB 3-1 cells assessed as reversal fold at 2 uM measured after 72 hrs in presence of vincristine by CCK8 assay relative to control", "type": "functional"}, "OVCAR-8 [14]": {"test_system": "OVCAR-8", "test": "Chemo-sensitizing activity against human OVCAR-8 cells assessed as reversal fold at 2 uM measured after 72 hrs in presence of colchicine by CCK8 assay relative to control", "type": "functional"}, "[15]": {"test": "Cytotoxicity against human HEK293 cells assessed as cell viability at 1 to 5 uM measured after 72 hrs by CCK8 assay", "type": "cell-based", "conditions": "dose 1-5 µM, read-out: Activity"}, "HEK293 [16]": {"test_system": "HEK293", "test": "Chemo-sensitizing activity against ABCB1-overexpressing human HEK293/MDR19 cells assessed as reversal fold at 1 uM measured after 72 hrs in presence of paclitaxel by CCK8 assay relative to control", "type": "functional"}, "KB 3-1 [17]": {"test_system": "KB 3-1", "test": "Chemo-sensitizing activity against human KB 3-1 cells assessed as reversal fold at 5 uM measured after 72 hrs in presence of colchicine by CCK8 assay relative to control", "type": "functional"}, "HEK293 [18]": {"test_system": "HEK293", "test": "Chemo-sensitizing activity against ABCG2-overexpressing human HEK293/482R cells assessed as reversal fold at 1 uM measured after 72 hrs in presence of mitoxatrone by CCK8 assay relative to control", "type": "functional"}, "KB-V1 [19]": {"test_system": "KB-V1", "test": "Chemo-sensitizing activity against ABCB1-overexpressing human KB-V1 cells assessed as reversal fold at 1 uM measured after 72 hrs in presence of vincristine by CCK8 assay relative to control", "type": "functional"}, "ABCG2 [20]": {"target": "T1, ABCG2 (Homo sapiens, UniProt Q9UNQ0)", "T1 sequence (Q9UNQ0 whole entry)": "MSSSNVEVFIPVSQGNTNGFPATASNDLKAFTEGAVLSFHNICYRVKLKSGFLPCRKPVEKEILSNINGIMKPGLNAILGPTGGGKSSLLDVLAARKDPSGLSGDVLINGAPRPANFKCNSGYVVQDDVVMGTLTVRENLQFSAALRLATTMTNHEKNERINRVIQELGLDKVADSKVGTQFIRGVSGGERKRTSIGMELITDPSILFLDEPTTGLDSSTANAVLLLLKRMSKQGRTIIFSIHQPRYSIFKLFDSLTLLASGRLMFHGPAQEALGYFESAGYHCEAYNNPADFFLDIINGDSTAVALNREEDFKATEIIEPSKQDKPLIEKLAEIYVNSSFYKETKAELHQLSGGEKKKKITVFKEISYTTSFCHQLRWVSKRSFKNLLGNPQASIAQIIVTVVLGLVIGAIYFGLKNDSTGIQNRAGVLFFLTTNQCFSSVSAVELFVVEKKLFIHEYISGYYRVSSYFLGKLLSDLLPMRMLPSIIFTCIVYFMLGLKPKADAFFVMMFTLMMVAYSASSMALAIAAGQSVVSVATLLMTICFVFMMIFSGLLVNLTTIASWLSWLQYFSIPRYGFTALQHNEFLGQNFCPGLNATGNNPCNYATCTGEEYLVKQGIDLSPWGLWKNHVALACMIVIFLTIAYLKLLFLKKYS", "test": "Inhibition of ABCG2 in becatecarin-selected ABCG2-overexpressing human A549/Bec150 cells assessed as increase in intracellular mitoxantrone accumulation at 20 uM incubated for 1 hr in presence of mitoxantrone by flow cytometry", "type": "cell-based", "conditions": "probe mitoxantrone"}, "NCI-H460 [21]": {"test_system": "NCI-H460", "test": "Chemo-sensitizing activity against human NCI-H460 cells assessed as reversal fold at 1 uM measured after 72 hrs in presence of mitoxantrone by CCK8 assay relative to control", "type": "functional"}, "A549 [22]": {"test_system": "A549", "test": "Chemo-sensitizing activity against human A549 cells assessed as reversal fold at 1 uM measured after 72 hrs in presence of mitoxantrone by CCK8 assay relative to control", "type": "functional"}, "NCI/ADR-RES": {"test_system": "NCI/ADR-RES", "test": "Chemo-sensitizing activity against ABCB1-overexpressing human NCI/ADR-RES cells assessed as reversal fold at 1 uM measured after 72 hrs in presence of paclitaxel by CCK8 assay relative to control", "type": "functional"}, "OVCAR-8 [23]": {"test_system": "OVCAR-8", "test": "Chemo-sensitizing activity against human OVCAR-8 cells assessed as reversal fold at 1 uM measured after 72 hrs in presence of colchicine by CCK8 assay relative to control", "type": "functional"}, "HEK293 [24]": {"test_system": "HEK293", "test": "Chemo-sensitizing activity against human HEK293 cells assessed as reversal fold at 2 uM measured after 72 hrs in presence of vincristine by CCK8 assay relative to control", "type": "functional"}, "NCI-H460 [25]": {"test_system": "NCI-H460", "test": "Chemo-sensitizing activity against mitoxantrone-selected ABCG2-overexpressing human NCI-H460/MX20 cells assessed as reversal fold at 2 uM measured after 72 hrs in presence of topotecan by CCK8 assay relative to control", "type": "functional"}, "KB 3-1 [26]": {"test_system": "KB 3-1", "test": "Chemo-sensitizing activity against human KB 3-1 cells assessed as reversal fold at 1 uM measured after 72 hrs in presence of colchicine by CCK8 assay relative to control", "type": "functional"}}}
{"smiles": "C=C(C)[C@H](CC=C(C)C)Cc1c(O)cc(O)c2c1O[C@H](c1ccc(O)cc1O)CC2=O", "note": "[SOPHORAFLAVANONE G]", "values": [{"measurement": "fold change (FC)", "setting": "HEK293 [1]", "value": 1.1}, {"measurement": "fold change (FC)", "setting": "HEK293 [2]", "value": 1}, {"measurement": "fold change (FC)", "setting": "A549 [3]", "value": 9.1}, {"measurement": "fold change (FC)", "setting": "NCI-H460 [4]", "value": 2.2}, {"measurement": "fold change (FC)", "setting": "NCI-H460 [5]", "value": 3}, {"measurement": "selectivity ratio", "setting": "ABCG2 [6]", "value": 0.8}, {"measurement": "fold change (FC)", "setting": "A549 [7]", "value": 2.7}, {"measurement": "fold change (FC)", "setting": "HEK293 [8]", "value": 2.4}, {"measurement": "fold change (FC)", "setting": "HEK293 [9]", "value": 1}, {"measurement": "fold change (FC)", "setting": "HEK293 [10]", "value": 0.8}, {"measurement": "fold change (FC)", "setting": "KB-V1 [11]", "value": 1.3}, {"measurement": "fold change (FC)", "setting": "NCI-H460 [12]", "value": 2.7}, {"measurement": "fold change (FC)", "setting": "KB 3-1 [13]", "value": 1.2}, {"measurement": "fold change (FC)", "setting": "OVCAR-8 [14]", "value": 1}, {"measurement": "viability at 72 h, 5 µM", "setting": "[15]", "value": "> 90", "unit": "%"}, {"measurement": "fold change (FC)", "setting": "HEK293 [16]", "value": 0.8}, {"measurement": "fold change (FC)", "setting": "KB 3-1 [17]", "value": 1.1}, {"measurement": "fold change (FC)", "setting": "HEK293 [18]", "value": 2.6}, {"measurement": "fold change (FC)", "setting": "KB-V1 [19]", "value": 1}, {"measurement": "inhibition at 1 h, 20 µM", "setting": "ABCG2 [20]", "value": 100, "unit": "%"}, {"measurement": "fold change (FC)", "setting": "NCI-H460 [21]", "value": 2.3}, {"measurement": "fold change (FC)", "setting": "A549 [22]", "value": 1.2}, {"measurement": "fold change (FC)", "setting": "NCI/ADR-RES", "value": 1}, {"measurement": "fold change (FC)", "setting": "OVCAR-8 [23]", "value": 1}, {"measurement": "fold change (FC)", "setting": "HEK293 [24]", "value": 0.6}, {"measurement": "fold change (FC)", "setting": "NCI-H460 [25]", "value": 7.2}, {"measurement": "fold change (FC)", "setting": "KB 3-1 [26]", "value": 1}]}
